Starred links: 1 amine or outer side, 2 acyl side, 3 side chain; linkers in the order of their positions; H or OH if unused. Positions of bridges follow the written chain, without caps; N, C: chain ends. Non-standard residues stand in square brackets, D forms with d. Residues, ends and D or L forms follow the SMILES beside them. Chains are numbered I, II in the order given. Actinocin(9to1) = Cc1c2oc3c(C)ccc(C(=O)[*:1])c3nc-2c(C(=O)[*:2])c(N)c1=O; NMeV = CN[C@H](C(=O)O)C(C)C; Sar = CNCC(=O)O
Columns and labels:
[1] = test system: HeLa cells; test: Comparison with single layer culture method in cell proliferation test using agent for inducing apoptosis; type: cell-based, human; conditions: day 4
Experimental: This aqueous solution was sterilized at 121° C. for 20 min in an autoclave.
Each plate was cultured by being stood still in a CO2 incubator (37° C., 5% CO2). […] To the culture medium on day 4 was added an ATP reagent (150 μL) (CellTiter-Glo (registered trade mark) Luminescent Cell Viability Assay, manufactured by Promega) to give a suspension, which was stood for about 10 min at room temperature, and the luminescence intensity (RLU value) was measured by FlexStation3 (manufactured by Molecular Devices), and the number of viable cells was measured by subtracting the luminescence value of the medium alone. For WST-8 measurement, a WST-8 solution (manufactured by is DOJINDO Laboratories, 15 μL) was added, the mixture was incubated at 37° C. for 100 min, the absorbance at 450 nm was measured by an absorbance spectrometer (manufactured by Molecular Devices, SPECTRA MAX 190), and the number of viable cells was measured by subtracting the absorbance of the medium alone.

[2] = test system: HeLa cells; test: Cell proliferation test using various anticancer drugs; type: cell-based, human; conditions: 1 μM; HeLa cells 5 days later; DAG 0.030% medium
Experimental: This aqueous solution was sterilized at 121° C. for 20 min in an autoclave. […] The anticancer drug used was Adriamycin (manufactured by WAKO), Paclitaxel (manufactured by WAKO) or Mitomycin C (manufactured by WAKO).
Successively, this plate was cultured by being stood still in a CO2 incubator (37° C., 5% CO2) for 7 days. After culturing for 3, 5, 7 days, to the culture medium was added a WST-8 solution (manufactured by DOJINDO Laboratories, 20 μL), and the mixture was incubated at 37° C. for 100 min. The absorbance at 450 nm was measured by an absorbance spectrometer (manufactured by Molecular Devices, SPECTRA MAX 190), and the number of viable cells was measured by subtracting the absorbance of the medium alone. The culture medium containing the cells after 5 days of culture was stirred with a pipette and the obtained stirred solution (20 μL) was mixed with Trypan Blue stain 0.4% (manufactured by Invitrogen, 20 μL) and the cell density was measured under a microscope.

[3] = 1 μM, deacylated gellan gum addition group (0.015%)
[4] = 1 μM, single layer culture group
[5] = 10 μM, deacylated gellan gum addition group (0.015%)
[6] = 10 μM, single layer culture group
[7] = 100 μM, deacylated gellan gum addition group (0.015%)
[8] = 100 μM, single layer culture group

SMILES | % Control of RLU value (ATP) [1, 3] [% Control] | % Control of absorbance at 450 nm (WST-8) [1, 3] [% Control] | % Control of RLU value (ATP) [1, 4] [% Control] | % Control of absorbance at 450 nm (WST-8) [1, 4] [% Control] | % Control of RLU value (ATP) [1, 5] [% Control] | % Control of absorbance at 450 nm (WST-8) [1, 5] [% Control] | % Control of RLU value (ATP) [1, 6] [% Control] | % Control of absorbance at 450 nm (WST-8) [1, 6] [% Control] | cell density [2] | % Control of RLU value (ATP) [1, 7] [% Control] | % Control of absorbance at 450 nm (WST-8) [1, 7] [% Control] | % Control of RLU value (ATP) [1, 8] [% Control] | % Control of absorbance at 450 nm (WST-8) [1, 8] [% Control]
Cc1c2oc3c(C)ccc(C(=O)N[C@@H]4C(=O)N[C@H](C(C)C)C(=O)N5CCC[C@H]5C(=O)N(C)CC(=O)N(C)[C@@H](C(C)C)C(=O)O[C@@H]4C)c3nc-2c(C(=O)N[C@@H]2C(=O)N[C@H](C(C)C)C(=O)N3CCC[C@H]3C(=O)N(C)CC(=O)N(C)[C@@H](C(C)C)C(=O)O[C@@H]2C)c(N)c1=O [Actinomycin D] (I: T[dV]P[Sar][NMeV] / II: T[dV]P[Sar][NMeV]; ester I:1-I:C, II:1-II:C; linker I:N-II:N via Actinocin(9to1)) | 4 | 3 | 2 | 2 | 6 | 12 | 2 | 4 |  |  |  |  | 
COc1cccc2c1C(=O)c1c(O)c3c(c(O)c1C2=O)C[C@@](O)(C(=O)CO)C[C@@H]3O[C@H]1C[C@H](N)[C@H](O)[C@H](C)O1 [Adriamycin] |  |  |  |  |  |  |  |  | 0.6 10^4 cells/mL |  |  |  | 
C[C@@H]1C[C@@H]([C@H](O)CC2CC(=O)NC(=O)C2)C(=O)[C@@H](C)C1 [Cycloheximide] |  |  |  |  | 9 | 4 | 29 | 21 |  | 4 | 1 | 9 | 7
C[C@@H]1C[C@H]2[C@@H]3CCC4=CC(=O)C=C[C@]4(C)[C@@]3(F)[C@@H](O)C[C@]2(C)[C@@]1(O)C(=O)CO [Dexamethasone] | 232 | 184 |  |  | 241 | 173 | 116 |  |  |  |  |  | 

— patent US11371013B2, “Culture medium composition and method of culturing cell or tissue using thereof” (Nissan Chemical Industries, Ltd., priority 2012, dated 2022)
